Biological target: T1, Pyruvate kinase (PK) (Ruminiclostridium cellulolyticum, UniProt B8I6Q5)
T1 construct: gene Ccel_2569; full-length, C-terminal His tag (pET28a), E. coli BL21(DE3), Ni-NTA and anion exchange
T1 sequence (B8I6Q5 1-580): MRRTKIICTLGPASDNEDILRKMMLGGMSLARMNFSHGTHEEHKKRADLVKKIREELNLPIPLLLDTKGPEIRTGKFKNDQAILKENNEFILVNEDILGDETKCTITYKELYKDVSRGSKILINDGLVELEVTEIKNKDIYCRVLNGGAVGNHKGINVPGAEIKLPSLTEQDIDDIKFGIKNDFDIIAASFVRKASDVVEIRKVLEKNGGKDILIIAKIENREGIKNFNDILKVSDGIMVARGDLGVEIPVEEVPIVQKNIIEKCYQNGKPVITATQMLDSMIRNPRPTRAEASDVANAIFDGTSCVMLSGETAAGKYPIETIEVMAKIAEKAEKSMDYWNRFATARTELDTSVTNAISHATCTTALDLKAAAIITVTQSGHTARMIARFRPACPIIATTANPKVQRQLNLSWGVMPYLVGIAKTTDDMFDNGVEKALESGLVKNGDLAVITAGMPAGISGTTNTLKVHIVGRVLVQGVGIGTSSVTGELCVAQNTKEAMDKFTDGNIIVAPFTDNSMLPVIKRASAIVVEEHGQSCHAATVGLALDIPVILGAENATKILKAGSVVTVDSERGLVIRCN
Assay: activation of PK, HPLC-RI of pyruvate
Type: biochemical
Details: allosteric activator only with GDP as co-substrate; FBP 0.5, 3, 10 mM; 20 mM MgCl2, 30 mM KCl, pH 7.0, 37 °C

For `O=P(O)(O)OC[C@H]1OC(O)(COP(=O)(O)O)[C@@H](O)[C@@H]1O` (stereo partly shown) [FBP], the “activation of PK, HPLC-RI of pyruvate” value was “FBP was found to act as a potent allosteric activator only when GDP is the co-substrate”.

Reference: paper PMC11955521, “A GTP-driven central carbon metabolism in the cellulolytic bacterium Ruminiclostridium cellulolyticum” (Communications Biology, 2025)
